According to paper PMC7399811, “Analogues of a Cyclic Antimicrobial Peptide with a Flexible Linker Show Promising Activity against Pseudomonas aeruginosa and Staphylococcus aureus” (Antibiotics, 2020):
In brackets after ≈: the same amount, converted by molar mass. Square brackets hold non-standard residues; d marks the D form. Peptide text beside a SMILES is read from it. Bip = N[C@@H](Cc1ccc(-c2ccccc2)cc1)C(=O)O; 2Nal = N[C@@H](Cc1ccc2ccccc2c1)C(=O)O; Dab = NCC[C@H](N)C(=O)O; AEEA = NCCOCCOCC(=O)O

Assays:
[1] = tested on: A. baumannii ATCC 19606; format: cell-based; conditions: ATCC 19606
Description: (§1) Bacterial strains (E. coli ATCC 29522, S. aureus ATCC 29213, A. baumannii ATCC 19606, and P. aeruginosa ATCC 27853) were grown overnight on LB agar plates at 37 °C. Overnight cultures were prepared by inoculation of two to three colonies in 10 mL non-cation adjusted Mueller–Hinton broth (MHB) media (BD BBLTM Beef extract powder, BD BactoTMCasamino acids, and DIFCO soluble starch). Bacterial inoculum for MIC testing was prepared as balanced cultures, as previously described. The bacterial suspension was adjusted using MHB to an OD600 of 0.1, approximately 1·10^8 colony forming units (CFU/mL), and then diluted 1:200 in MHB, to give a final bacterial suspension of 5·10^5 CFU/mL, as described by Wiegand et al.. […] For MIC determination, all peptides were measured in triplicates using the protocol described by Wiegand et al. for “antimicrobial peptides that require the presence of acetic acid/BSA”. In brief, 20 µL peptide solution and gentamycin solution was transferred to column 1 of 96-well plates. Next, 10 µL 0.2% BSA; 0.01% acetic acid MHB media was transferred to column 2–11. Subsequently, peptides were serially diluted two-fold in the MIC plate and 90 µL bacterial suspension was transferred to all wells in column 1–11. Next, 100 µL bacterial suspension was transferred to column 12 D–F (growth control) and 100 µL media to column 12 A–C (sterility control). After an overnight incubation at 37 °C of the MIC plates, MIC values were determined as the lowest concentration at which there was no visible bacterial growth. For the inoculum control, 10 µL of solution from a positive-growth control well from each bacterial strain was dissolved in 990 µL phosphate-buffered saline (PBS) (1:100 dilution) in an Eppendorf tube. This solution was vortexed and 100 µL transferred to another Eppendorf tube containing 900 µL PBS (1:10 dilution) and vortexed. Then, 100 µL of each dilution was spread onto the MHB media plates, in triplicates, to achieve a CFU dilution of 1:1000 and 1:10,000, respectively. The plates were incubated overnight at 37 °C. The colonies were counted and 50 colonies were expected on the 1:10,000 plates and 500 on the 1:1000 plates.

[2] = tested on: E. coli ATCC 29522; format: cell-based; conditions: ATCC 29522
Description: as §1

[3] = tested on: P. aeruginosa ATCC 27853; format: cell-based
Description: as §1

[4] = tested on: S. aureus ATCC 29213; format: cell-based
Description: as §1

[5] = tested on: red blood cells; conditions: at 150 µM peptide; 0.5% v/v RBC in PBS, 1 h 37 °C, absorbance 414 nm, normalized to melittin (100%) and PBS (0%)
Description: A total of 150 µL of 5 µM melittin was added to the positive control wells 1-6H of a V-shaped 96-well polypropylene plate and left overnight. The melittin solution was removed and the positive control wells were washed 3 times with 150 µL PBS. Afterwards, a 2.5 µM melittin solution was added to the positive control wells. For the assay, 0-negative blood in EDTA was used. Blood was washed by mixing 3 mL of PBS with 1 mL of whole blood, and centrifuged for 8 min at 3000 rpm. The supernatant was discarded and 4 mL of PBS added, mixed gently, and centrifuged. This wash cycle was repeated but the last centrifuge velocity was raised to 4000 rpm. Next, 40 µL red blood cells (RBC) was suspended in 8 mL of PBS to achieve an RBC suspension of 0.5% volume/volume (v/v). Peptide solutions were prepared at 600 µM, two times the highest concentration. A total of 150 µL peptide solution was transferred to row A. Next, 75 µL PBS was transferred to wells B1 to G12, as well as H7-12 (negative control), and the peptides were serially diluted two-fold. Then, 75 µL RBC suspension was added to all wells and the plate was covered with a Microseal® film and incubated for 1 h at 37 °C. Next, the plate was centrifuged for 10 min at 4000 rpm. Subsequently, 60 µL supernatant was transferred into the corresponding wells of a clear, polystyrene, flat-bottomed 96-well ELISA plate. The absorbance was read at λ = 414 nm with a VersaMaxTM Tunable Microplate Reader and the data were evaluated on Softmax® Pro. The results were normalized with respect to the average positive (100%) and negative (0%) controls, as described previously [43].

## NCCCC[C@@H]1NC(=O)[C@H](CCCCN)NC(=O)[C@H](Cc2ccc3ccccc3c2)NC(=O)[C@H](CCCCN)NC(=O)[C@H](CCCCN)NC(=O)[C@H](CC(N)=O)NC(=O)[C@H](Cc2ccc3ccccc3c2)NC(=O)COCCOCCNC(=O)[C@H](Cc2ccc(-c3ccccc3)cc2)NC1=O [compound 1] (cyclo(K[2Nal]KK[Bip][AEEA][2Nal]NK))
[1]
  Minimum inhibitory concentration AB: 32 µg/mL (≈ 23 µM)
[2]
  Minimum inhibitory concentration EC: >64 µg/mL
[3]
  Minimum inhibitory concentration PA: 32 µg/mL (≈ 23 µM)
[4]
  Minimum inhibitory concentration SA: >64 µg/mL

## N=C(N)NCCC[C@@H]1NC(=O)[C@H](Cc2ccc3ccccc3c2)NC(=O)[C@H](CCCNC(=N)N)NC(=O)[C@H](CC(N)=O)NC(=O)[C@H](CCN)NC(=O)[C@H](Cc2ccc3ccccc3c2)NC(=O)COCCOCCNC(=O)[C@H](Cc2ccccc2)NC(=O)[C@H](CCN)NC1=O [compound 16] (cyclo(R[2Nal]R[Dab]F[AEEA][2Nal][Dab]N))
[1]
  Minimum inhibitory concentration AB: 64 µg/mL (≈ 48.7 µM)
[2]
  Minimum inhibitory concentration EC: 64 µg/mL (≈ 48.7 µM)
[3]
  Minimum inhibitory concentration PA: 16 µg/mL (≈ 12.2 µM)
[5]
  percent hemolytic activity against red blood cells (%H): 16%

## NCCCC[C@@H]1NC(=O)[C@H](Cc2ccc3ccccc3c2)NC(=O)COCCOCCNC(=O)[C@H](Cc2ccc(-c3ccccc3)cc2)NC(=O)[C@H](CCCCN)NC(=O)[C@H](CC(N)=O)NC(=O)[C@H](Cc2ccc3ccccc3c2)NC(=O)[C@H](CCCCN)NC(=O)[C@H](CCCCN)NC1=O [compound 3] (cyclo(K[2Nal]NK[Bip][AEEA][2Nal]KK))
[1]
  Minimum inhibitory concentration AB: 64 µg/mL (≈ 46.1 µM)
[2]
  Minimum inhibitory concentration EC: >64 µg/mL
[3]
  Minimum inhibitory concentration PA: 64 µg/mL (≈ 46.1 µM)
[4]
  Minimum inhibitory concentration SA: 64 µg/mL (≈ 46.1 µM)

## N=C(N)NCCC[C@@H]1NC(=O)[C@H](CCN)NC(=O)[C@H](Cc2ccc3ccccc3c2)NC(=O)[C@H](CCN)NC(=O)[C@H](CC(N)=O)NC(=O)[C@H](CCN)NC(=O)[C@H](Cc2ccc3ccccc3c2)NC(=O)COCCOCCNC(=O)[C@H](Cc2ccc(-c3ccccc3)cc2)NC1=O [compound 12] (cyclo([Dab][2Nal][Dab]R[Bip][AEEA][2Nal][Dab]N))
[1]
  Minimum inhibitory concentration AB: 32 µg/mL (≈ 24 µM)
[2]
  Minimum inhibitory concentration EC: 32 µg/mL (≈ 24 µM)
[3]
  Minimum inhibitory concentration PA: 4 µg/mL (≈ 3 µM)
[4]
  Minimum inhibitory concentration SA: 1 µg/mL (≈ 0.75 µM)
[5]
  percent hemolytic activity against red blood cells (%H): 98%

## NCCCC[C@@H]1NC(=O)[C@H](Cc2ccc3ccccc3c2)NC(=O)COCCOCCNC(=O)[C@H](Cc2ccc(-c3ccccc3)cc2)NC(=O)[C@H](CCCCN)NC(=O)[C@H](CCCCN)NC(=O)[C@H](Cc2ccc3ccccc3c2)NC(=O)[C@H](CCCCN)NC(=O)[C@H](CC(N)=O)NC1=O [BSI-9, cyclo(Lys-Nal-Lys-Lys-Bip-O2Oc-Nal-Lys-Asn), reference compound] (cyclo(K[2Nal]KK[Bip][AEEA][2Nal]KN))
[1]
  Minimum inhibitory concentration AB: 32 µg/mL (≈ 23 µM)
[2]
  Minimum inhibitory concentration EC: 64 µg/mL (≈ 46.1 µM)
[3]
  Minimum inhibitory concentration PA: 16 µg/mL (≈ 11.5 µM)
[4]
  Minimum inhibitory concentration SA: 32 µg/mL (≈ 23 µM)
[5]
  percent hemolytic activity against red blood cells (%H): 33%

## NCCCC[C@@H]1NC(=O)[C@H](Cc2ccccc2)NC(=O)COCCOCCNC(=O)[C@H](Cc2ccc(-c3ccccc3)cc2)NC(=O)[C@H](CCCCN)NC(=O)[C@H](CCCCN)NC(=O)[C@H](Cc2ccc3ccccc3c2)NC(=O)[C@H](CCCCN)NC(=O)[C@H](CC(N)=O)NC1=O [compound 7] (cyclo(K[2Nal]KK[Bip][AEEA]FKN))
[1]
  Minimum inhibitory concentration AB: 64 µg/mL (≈ 47.8 µM)
[2]
  Minimum inhibitory concentration EC: >64 µg/mL
[3]
  Minimum inhibitory concentration PA: 64 µg/mL (≈ 47.8 µM)
[4]
  Minimum inhibitory concentration SA: >64 µg/mL
[5]
  percent hemolytic activity against red blood cells (%H): 7%

## NCCCC[C@@H]1NC(=O)[C@H](Cc2ccc3ccccc3c2)NC(=O)COCCOCCNC(=O)[C@H](Cc2ccc(-c3ccccc3)cc2)NC(=O)[C@H](CCCCN)NC(=O)[C@H](CCCCN)NC(=O)[C@H](Cc2ccc3ccccc3c2)NC(=O)[C@H](CC(N)=O)NC(=O)[C@H](CCCCN)NC1=O [compound 4] (cyclo(N[2Nal]KK[Bip][AEEA][2Nal]KK))
[1]
  Minimum inhibitory concentration AB: 64 µg/mL (≈ 46.1 µM)
[2]
  Minimum inhibitory concentration EC: >64 µg/mL
[3]
  Minimum inhibitory concentration PA: 64 µg/mL (≈ 46.1 µM)
[4]
  Minimum inhibitory concentration SA: >64 µg/mL

## NCCCC[C@@H]1NC(=O)[C@H](Cc2ccc3ccccc3c2)NC(=O)COCCOCCNC(=O)[C@H](Cc2ccc(-c3ccccc3)cc2)NC(=O)[C@H](CCCCN)NC(=O)[C@H](CCCCN)NC(=O)[C@H](Cc2ccccc2)NC(=O)[C@H](CCCCN)NC(=O)[C@H](CC(N)=O)NC1=O [compound 5] (cyclo(KFKK[Bip][AEEA][2Nal]KN))
[1]
  Minimum inhibitory concentration AB: >64 µg/mL
[2]
  Minimum inhibitory concentration EC: >64 µg/mL
[3]
  Minimum inhibitory concentration PA: 32 µg/mL (≈ 23.9 µM)
[4]
  Minimum inhibitory concentration SA: >64 µg/mL
[5]
  percent hemolytic activity against red blood cells (%H): 4%

## NCCCC[C@@H]1NC(=O)[C@H](Cc2ccc3ccccc3c2)NC(=O)COCCOCCNC(=O)[C@H](Cc2ccccc2)NC(=O)[C@H](CCCCN)NC(=O)[C@H](CCCCN)NC(=O)[C@H](Cc2ccc3ccccc3c2)NC(=O)[C@H](CCCCN)NC(=O)[C@H](CC(N)=O)NC1=O [compound 6] (cyclo(K[2Nal]KKF[AEEA][2Nal]KN))
[1]
  Minimum inhibitory concentration AB: >64 µg/mL
[2]
  Minimum inhibitory concentration EC: >64 µg/mL
[3]
  Minimum inhibitory concentration PA: 32 µg/mL (≈ 24.4 µM)
[4]
  Minimum inhibitory concentration SA: >64 µg/mL
[5]
  percent hemolytic activity against red blood cells (%H): 6%

## N=C(N)NCCC[C@@H]1NC(=O)[C@H](Cc2ccc3ccccc3c2)NC(=O)COCCOCCNC(=O)[C@H](Cc2ccc(-c3ccccc3)cc2)NC(=O)[C@H](CCCNC(=N)N)NC(=O)[C@H](CCCNC(=N)N)NC(=O)[C@H](Cc2ccc3ccccc3c2)NC(=O)[C@H](CCCNC(=N)N)NC(=O)[C@H](CC(N)=O)NC1=O [compound 14] (cyclo(R[2Nal]RR[Bip][AEEA][2Nal]RN))
[1]
  Minimum inhibitory concentration AB: >64 µg/mL
[2]
  Minimum inhibitory concentration EC: >64 µg/mL
[3]
  Minimum inhibitory concentration PA: 32 µg/mL (≈ 21.3 µM)
[4]
  Minimum inhibitory concentration SA: 32 µg/mL (≈ 21.3 µM)
[5]
  percent hemolytic activity against red blood cells (%H): 68%

## NCCCC[C@@H]1NC(=O)[C@H](Cc2ccc3ccccc3c2)NC(=O)COCCOCCNC(=O)[C@H](Cc2ccc(-c3ccccc3)cc2)NC(=O)[C@H](CC(N)=O)NC(=O)[C@H](CCCCN)NC(=O)[C@H](Cc2ccc3ccccc3c2)NC(=O)[C@H](CCCCN)NC(=O)[C@H](CCCCN)NC1=O [compound 2] (cyclo(K[2Nal]KN[Bip][AEEA][2Nal]KK))
[1]
  Minimum inhibitory concentration AB: >64 µg/mL
[2]
  Minimum inhibitory concentration EC: >64 µg/mL
[3]
  Minimum inhibitory concentration PA: 64 µg/mL (≈ 46.1 µM)
[4]
  Minimum inhibitory concentration SA: >64 µg/mL

## N=C(N)NCCC[C@@H]1NC(=O)[C@H](Cc2ccc3ccccc3c2)NC(=O)[C@H](CCN)NC(=O)[C@H](CC(N)=O)NC(=O)[C@H](CCN)NC(=O)[C@H](Cc2ccc3ccccc3c2)NC(=O)COCCOCCNC(=O)[C@H](Cc2ccccc2)NC(=O)[C@H](CCN)NC1=O [compound 18] (cyclo([Dab][2Nal]R[Dab]F[AEEA][2Nal][Dab]N))
[1]
  Minimum inhibitory concentration AB: >64 µg/mL
[2]
  Minimum inhibitory concentration EC: 64 µg/mL (≈ 50.9 µM)
[3]
  Minimum inhibitory concentration PA: 16 µg/mL (≈ 12.7 µM)
[4]
  Minimum inhibitory concentration SA: 64 µg/mL (≈ 50.9 µM)
[5]
  percent hemolytic activity against red blood cells (%H): 30%

## NCCCC[C@@H]1NC(=O)[C@H](Cc2ccccc2)NC(=O)COCCOCCNC(=O)[C@H](Cc2ccccc2)NC(=O)[C@H](CCCCN)NC(=O)[C@H](CCCCN)NC(=O)[C@H](Cc2ccccc2)NC(=O)[C@H](CCCCN)NC(=O)[C@H](CC(N)=O)NC1=O [compound 8] (cyclo(KFKKF[AEEA]FKN))
[1]
  Minimum inhibitory concentration AB: >64 µg/mL
[2]
  Minimum inhibitory concentration EC: >64 µg/mL
[3]
  Minimum inhibitory concentration PA: >64 µg/mL
[4]
  Minimum inhibitory concentration SA: >64 µg/mL
[5]
  percent hemolytic activity against red blood cells (%H): 3%

## N=C(N)NCCC[C@@H]1NC(=O)[C@H](Cc2ccc3ccccc3c2)NC(=O)[C@H](CCCNC(=N)N)NC(=O)[C@H](CC(N)=O)NC(=O)[C@H](CCN)NC(=O)[C@H](Cc2ccc3ccccc3c2)NC(=O)COCCOCCNC(=O)[C@H](Cc2ccc(-c3ccccc3)cc2)NC(=O)[C@H](CCN)NC1=O [compound 15] (cyclo(R[2Nal]R[Dab][Bip][AEEA][2Nal][Dab]N))
[1]
  Minimum inhibitory concentration AB: >64 µg/mL
[2]
  Minimum inhibitory concentration EC: 64 µg/mL (≈ 46.1 µM)
[3]
  Minimum inhibitory concentration PA: 16 µg/mL (≈ 11.5 µM)
[4]
  Minimum inhibitory concentration SA: 8 µg/mL (≈ 5.76 µM)
